Reference: ChEMBL document CHEMBL1201862, “PubChem BioAssay data set” (2004)
Activity calls are given as the source filed them.

How the values were obtained:
[1] = PhoP promoter GFP reporter reduction in Typhimurium – purified and synthesized compounds, set 2, PhoP regulon inhibitor project, dose response (AID 2831); type: functional
[2] = molecular target: T1, Dual specificity protein phosphatase 3 (Homo sapiens, UniProt P51452); test: SAR VHR1 Fluorescent Assay for In Vitro dose response studies Set 2. [Related pubchem assays (depositor defined):AID1654, AID1661, AID1878]; type: functional
[3] = molecular target: T2, Tyrosine-protein phosphatase non-receptor type 7 (Homo sapiens, UniProt P35236); test: SAR analysis of chemical inhibitors of HePTP using a Fluorescent assay - Set 2. [Related pubchem assays (depositor defined):AID1059, AID1077, AID1661, AID2085, AID521]; type: functional
T2 sequence (P35236 whole entry): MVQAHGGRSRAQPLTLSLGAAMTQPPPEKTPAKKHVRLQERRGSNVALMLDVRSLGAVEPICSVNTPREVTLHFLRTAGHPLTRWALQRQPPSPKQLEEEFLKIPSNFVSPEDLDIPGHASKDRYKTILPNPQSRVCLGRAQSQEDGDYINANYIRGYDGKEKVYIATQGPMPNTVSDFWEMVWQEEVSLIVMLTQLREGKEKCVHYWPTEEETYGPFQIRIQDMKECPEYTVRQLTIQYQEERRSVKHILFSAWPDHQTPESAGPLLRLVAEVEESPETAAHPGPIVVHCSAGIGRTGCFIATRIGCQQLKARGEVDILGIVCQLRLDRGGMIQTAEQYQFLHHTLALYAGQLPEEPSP

[4] = molecular target: Tyrosine-protein phosphatase non-receptor type 11 (Homo sapiens, UniProt Q06124); test: PTPN11 enzyme inhibitors – biochemical, selectivity assay for STEP inhibitor project, dose response (AID 602367); type: functional; conditions: read-out: IC50_Mean
[5] = molecular target: T3, Trace amine-associated receptor 1 (Homo sapiens, UniProt Q96RJ0); test: Fluorescence-based cell-based high throughput dose response assay to identify agonists of the human trace amine associated receptor 1 (TAAR1).; type: functional
T3 sequence (Q96RJ0 whole entry): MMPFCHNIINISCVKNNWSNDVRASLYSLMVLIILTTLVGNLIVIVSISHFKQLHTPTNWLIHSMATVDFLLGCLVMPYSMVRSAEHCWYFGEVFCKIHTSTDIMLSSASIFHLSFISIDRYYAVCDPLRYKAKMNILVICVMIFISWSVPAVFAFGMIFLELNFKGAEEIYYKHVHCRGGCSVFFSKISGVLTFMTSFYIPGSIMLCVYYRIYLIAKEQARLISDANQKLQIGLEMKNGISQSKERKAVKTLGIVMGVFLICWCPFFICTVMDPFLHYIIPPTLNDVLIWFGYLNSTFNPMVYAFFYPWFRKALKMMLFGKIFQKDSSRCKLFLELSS

[6] = molecular target: T4, Dual specificity protein phosphatase 6 (Rattus norvegicus, UniProt Q64346); type: functional
T4 sequence (Q64346 whole entry): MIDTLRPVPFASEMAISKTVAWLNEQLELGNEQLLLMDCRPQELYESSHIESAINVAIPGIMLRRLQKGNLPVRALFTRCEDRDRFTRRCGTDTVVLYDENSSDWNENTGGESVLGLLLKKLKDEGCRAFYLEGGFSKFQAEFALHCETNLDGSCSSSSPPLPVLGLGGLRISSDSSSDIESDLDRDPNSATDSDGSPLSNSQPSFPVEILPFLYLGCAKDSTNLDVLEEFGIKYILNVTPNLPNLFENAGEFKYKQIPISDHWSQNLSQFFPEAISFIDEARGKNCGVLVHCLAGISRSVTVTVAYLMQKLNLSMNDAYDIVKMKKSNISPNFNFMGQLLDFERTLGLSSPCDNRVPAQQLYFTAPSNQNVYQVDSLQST

[7] = molecular target: T4, Dual specificity protein phosphatase 6; test: SAR analysis of inhibitors of MKP-3 - Set 2. [Related pubchem assays (depositor defined):AID1055, AID1661, AID425, AID553, AID566]; type: functional
[8] = molecular target: Tyrosine-protein phosphatase non-receptor type 5 (Homo sapiens, UniProt P54829); test: PTPN5 enzyme inhibition – biochemical, fluorescence intensity, uHTS hits, confirmation (AID 602372); type: functional; conditions: read-out: IC50_Mean
[9] = molecular target: T4, Dual specificity protein phosphatase 6; test: inhibition of rat DUSP6 enzyme activity – biochemical, in vitro, primary screen (AID 425)
[10] = molecular target: T2, Tyrosine-protein phosphatase non-receptor type 7; test: redox-active compounds inhibiting HePTP phosphatase – biochemical, fluorescence, mechanism study (AID 2068); type: functional
[11] = molecular target: T1, Dual specificity protein phosphatase 3; test: VHR1 phosphatase inhibitors, biochemical (AID 1878)
[12] = molecular target: T1, Dual specificity protein phosphatase 3; test: VHR1 phosphatase inhibitors, primary screen, biochemical, absorbance, uHTS (AID 1654)
[13] = molecular target: T1, Dual specificity protein phosphatase 3; test: VHR phosphatase inhibition, dose response, selectivity assay for STEP inhibitor project, biochemical (AID 602374); type: functional; conditions: read-out: IC50_Mean
cells [14] = type: functional, cell-based
[15] = molecular target: T3, Trace amine-associated receptor 1; test: Counterscreen for agonists of the human trace amine associated receptor 1 (hTAAR1): Fluorescence-based cell-based high throughput dose response assay to identify hTAAR1 agonist that also desensitize TAAR1 receptor response.; type: functional
[16] = molecular target: T1, Dual specificity protein phosphatase 3; test: SAR VHR1 absorbance Assay for In Vitro dose response studies. [Related pubchem assays (depositor defined):AID1654, AID1661, AID1878, AID1992, AID2004]
cells [17] = type: functional, cell-based; remark: listed apart in the source
[18] = molecular target: T1, Dual specificity protein phosphatase 3; test: SAR VHR1 Fluorescent Assay for In Vitro dose response studies. [Related pubchem assays (depositor defined):AID1654, AID1661, AID1878, AID1992, AID2004, AID2070, AID2085]; type: functional
[19] = molecular target: Intestinal-type alkaline phosphatase (Mus musculus, UniProt P24822); test: PubChem AID 488874; type: functional
[20] = molecular target: T5, Intestinal-type alkaline phosphatase (Homo sapiens, UniProt P09923); test: inhibition of human intestinal alkaline phosphatase – biochemical, luminescent, uHTS hits, set 2, dose response (AID 488793); type: functional
[21] = molecular target: T6, Oxysterols receptor LXR-beta (Homo sapiens, UniProt P55055); type: functional, cell-based;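 note: Cell-based luminescence dose-response assay of agonist activity at LXR, run as a confirmatory counterscreen to a daf-12 agonist screen; HEK293 cells with Gal4-LXR fusion and GAL4-driven luciferase reporter; agonist potency from rising luciferase signal of a Gal4-LXR reporter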
T6 sequence (P55055 whole entry): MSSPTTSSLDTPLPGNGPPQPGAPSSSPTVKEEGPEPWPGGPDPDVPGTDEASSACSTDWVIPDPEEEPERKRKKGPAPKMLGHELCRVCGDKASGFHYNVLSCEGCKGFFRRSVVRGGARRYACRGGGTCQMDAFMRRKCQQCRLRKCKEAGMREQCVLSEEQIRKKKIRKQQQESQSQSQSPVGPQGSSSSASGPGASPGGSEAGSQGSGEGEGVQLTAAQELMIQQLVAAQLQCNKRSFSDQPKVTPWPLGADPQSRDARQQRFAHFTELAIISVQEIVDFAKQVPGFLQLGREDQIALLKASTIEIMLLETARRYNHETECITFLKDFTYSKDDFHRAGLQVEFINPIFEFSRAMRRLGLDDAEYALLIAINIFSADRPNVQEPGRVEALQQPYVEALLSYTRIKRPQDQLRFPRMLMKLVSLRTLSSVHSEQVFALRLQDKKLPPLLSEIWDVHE

[22] = molecular target: T7, Alkaline phosphatase, tissue-nonspecific isozyme (Homo sapiens, UniProt P05186); test: inhibition of tissue-nonspecific alkaline phosphatase – biochemical, dose response (AID 488882); type: functional
T7 sequence (P05186 whole entry): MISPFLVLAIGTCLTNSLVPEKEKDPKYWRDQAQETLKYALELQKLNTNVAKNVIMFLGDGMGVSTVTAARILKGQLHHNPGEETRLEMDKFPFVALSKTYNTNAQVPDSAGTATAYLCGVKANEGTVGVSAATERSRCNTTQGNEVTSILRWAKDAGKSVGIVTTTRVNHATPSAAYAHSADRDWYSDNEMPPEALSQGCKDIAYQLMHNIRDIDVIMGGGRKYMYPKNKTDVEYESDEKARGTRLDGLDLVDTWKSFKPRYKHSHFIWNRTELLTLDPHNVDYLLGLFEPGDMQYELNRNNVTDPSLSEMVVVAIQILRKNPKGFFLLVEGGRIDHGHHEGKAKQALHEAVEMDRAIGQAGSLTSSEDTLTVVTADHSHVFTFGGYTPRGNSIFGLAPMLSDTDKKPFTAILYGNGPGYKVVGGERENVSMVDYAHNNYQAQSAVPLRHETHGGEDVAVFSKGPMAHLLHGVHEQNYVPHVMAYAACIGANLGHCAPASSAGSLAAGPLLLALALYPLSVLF

Nonstructural protein 1 = Nonstructural protein 1 (Influenza A virus, UniProt Q194T2); type: functional, Influenza A virus (A/California/07/2009(H1N1))
cells [23] = test: cells
[24] = molecular target: T5, Intestinal-type alkaline phosphatase; test: Dose Response confirmation of uHTS hits from a small molecule inhibitors of human intestinal alkaline phosphatase via a luminescent assay. [Related pubchem assays (depositor defined):AID2544, AID2574]; type: functional
[25] = molecular target: T8, Voltage-gated N-type calcium channel alpha-1B subunit/Amyloid beta A4 precursor protein-binding family A member 1 (Homo sapiens, UniProt Q00975+Q02410); type: protein assay
SUMO-activating enzyme [26] = molecular target: T9, SUMO-activating enzyme (Homo sapiens, UniProt Q9UBT2); test: blockers of UBC9-mediated SUMO conjugation – biochemical, AlphaScreen, SUMOylation inhibitor project, confirmation (AID 2018); type: functional
[27] = molecular target: T8, Voltage-gated N-type calcium channel alpha-1B subunit/Amyloid beta A4 precursor protein-binding family A member 1; type: protein assay; remark: listed apart in the source
[28] = molecular target: T10, RNA-binding protein pos-1 (Caenorhabditis elegans, UniProt G5EF15); test: disruptors of C. elegans POS-1 RNA interaction – biochemical, fluorescence polarization, dose response (AID 1964);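 note: purified POS-1 fused to maltose binding protein made in E. coli; potency of compounds blocking POS-1 binding to fluorescent RNA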
T10 sequence (G5EF15 whole entry): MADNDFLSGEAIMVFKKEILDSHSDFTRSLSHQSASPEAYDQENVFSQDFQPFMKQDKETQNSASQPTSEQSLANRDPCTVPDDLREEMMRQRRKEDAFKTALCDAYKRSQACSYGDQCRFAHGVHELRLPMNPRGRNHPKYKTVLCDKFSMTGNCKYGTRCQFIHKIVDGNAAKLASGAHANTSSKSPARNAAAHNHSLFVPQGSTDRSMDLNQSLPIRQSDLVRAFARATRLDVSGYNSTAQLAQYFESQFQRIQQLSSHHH

[29] = molecular target: Induced myeloid leukemia cell differentiation protein Mcl-1 (Homo sapiens, UniProt Q07820); type: functional
SUMO-activating enzyme [30] = molecular target: T9, SUMO-activating enzyme; test: blockers of SAE1/SAE2–UBC9 SUMO transfer – biochemical, HTRF, uHTS, primary screen (AID 2006); type: protein-complex assay
[31] = molecular target: T11, Zinc finger protein mex-5 (Caenorhabditis elegans, UniProt Q9XUB2); test: potency of MEX-5 RNA-binding blockers – biochemical, C. elegans, fluorescence polarization, dose response (AID 1960)
T11 sequence (Q9XUB2 whole entry): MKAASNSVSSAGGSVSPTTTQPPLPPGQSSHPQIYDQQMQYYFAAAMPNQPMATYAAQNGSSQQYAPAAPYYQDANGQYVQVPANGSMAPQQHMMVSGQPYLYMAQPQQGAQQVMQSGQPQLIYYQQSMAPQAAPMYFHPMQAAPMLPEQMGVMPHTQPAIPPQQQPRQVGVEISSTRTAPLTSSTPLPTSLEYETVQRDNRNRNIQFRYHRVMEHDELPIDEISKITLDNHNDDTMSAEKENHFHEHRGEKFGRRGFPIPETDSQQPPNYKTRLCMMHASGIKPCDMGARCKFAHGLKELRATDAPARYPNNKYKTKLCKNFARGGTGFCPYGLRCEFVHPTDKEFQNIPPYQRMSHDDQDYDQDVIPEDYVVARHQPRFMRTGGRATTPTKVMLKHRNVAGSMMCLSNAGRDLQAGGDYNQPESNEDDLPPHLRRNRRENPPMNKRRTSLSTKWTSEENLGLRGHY

[32] = molecular target: T12, Voltage-dependent T-type calcium channel subunit alpha-1H (Homo sapiens, UniProt O95180); test: inhibition of CACNA1H calcium flux – cell-based, SynthLib3 library, HEK293 Cav3.2, fluorescence (AID 493041); type: functional
[33] = molecular target: T12, Voltage-dependent T-type calcium channel subunit alpha-1H; test: human CACNA1H calcium influx blockade – cell-based, synthetic library set 2, HEK293 HH8, Fluo-4, SAR follow-up (AID 493023); type: functional

T1 sequence (P51452 whole entry): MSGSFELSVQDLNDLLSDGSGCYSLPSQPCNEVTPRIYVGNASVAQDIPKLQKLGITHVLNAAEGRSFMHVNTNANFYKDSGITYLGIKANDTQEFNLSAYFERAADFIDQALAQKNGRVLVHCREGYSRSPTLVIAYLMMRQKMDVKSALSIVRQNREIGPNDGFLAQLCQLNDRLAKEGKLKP
T12 sequence (O95180 whole entry): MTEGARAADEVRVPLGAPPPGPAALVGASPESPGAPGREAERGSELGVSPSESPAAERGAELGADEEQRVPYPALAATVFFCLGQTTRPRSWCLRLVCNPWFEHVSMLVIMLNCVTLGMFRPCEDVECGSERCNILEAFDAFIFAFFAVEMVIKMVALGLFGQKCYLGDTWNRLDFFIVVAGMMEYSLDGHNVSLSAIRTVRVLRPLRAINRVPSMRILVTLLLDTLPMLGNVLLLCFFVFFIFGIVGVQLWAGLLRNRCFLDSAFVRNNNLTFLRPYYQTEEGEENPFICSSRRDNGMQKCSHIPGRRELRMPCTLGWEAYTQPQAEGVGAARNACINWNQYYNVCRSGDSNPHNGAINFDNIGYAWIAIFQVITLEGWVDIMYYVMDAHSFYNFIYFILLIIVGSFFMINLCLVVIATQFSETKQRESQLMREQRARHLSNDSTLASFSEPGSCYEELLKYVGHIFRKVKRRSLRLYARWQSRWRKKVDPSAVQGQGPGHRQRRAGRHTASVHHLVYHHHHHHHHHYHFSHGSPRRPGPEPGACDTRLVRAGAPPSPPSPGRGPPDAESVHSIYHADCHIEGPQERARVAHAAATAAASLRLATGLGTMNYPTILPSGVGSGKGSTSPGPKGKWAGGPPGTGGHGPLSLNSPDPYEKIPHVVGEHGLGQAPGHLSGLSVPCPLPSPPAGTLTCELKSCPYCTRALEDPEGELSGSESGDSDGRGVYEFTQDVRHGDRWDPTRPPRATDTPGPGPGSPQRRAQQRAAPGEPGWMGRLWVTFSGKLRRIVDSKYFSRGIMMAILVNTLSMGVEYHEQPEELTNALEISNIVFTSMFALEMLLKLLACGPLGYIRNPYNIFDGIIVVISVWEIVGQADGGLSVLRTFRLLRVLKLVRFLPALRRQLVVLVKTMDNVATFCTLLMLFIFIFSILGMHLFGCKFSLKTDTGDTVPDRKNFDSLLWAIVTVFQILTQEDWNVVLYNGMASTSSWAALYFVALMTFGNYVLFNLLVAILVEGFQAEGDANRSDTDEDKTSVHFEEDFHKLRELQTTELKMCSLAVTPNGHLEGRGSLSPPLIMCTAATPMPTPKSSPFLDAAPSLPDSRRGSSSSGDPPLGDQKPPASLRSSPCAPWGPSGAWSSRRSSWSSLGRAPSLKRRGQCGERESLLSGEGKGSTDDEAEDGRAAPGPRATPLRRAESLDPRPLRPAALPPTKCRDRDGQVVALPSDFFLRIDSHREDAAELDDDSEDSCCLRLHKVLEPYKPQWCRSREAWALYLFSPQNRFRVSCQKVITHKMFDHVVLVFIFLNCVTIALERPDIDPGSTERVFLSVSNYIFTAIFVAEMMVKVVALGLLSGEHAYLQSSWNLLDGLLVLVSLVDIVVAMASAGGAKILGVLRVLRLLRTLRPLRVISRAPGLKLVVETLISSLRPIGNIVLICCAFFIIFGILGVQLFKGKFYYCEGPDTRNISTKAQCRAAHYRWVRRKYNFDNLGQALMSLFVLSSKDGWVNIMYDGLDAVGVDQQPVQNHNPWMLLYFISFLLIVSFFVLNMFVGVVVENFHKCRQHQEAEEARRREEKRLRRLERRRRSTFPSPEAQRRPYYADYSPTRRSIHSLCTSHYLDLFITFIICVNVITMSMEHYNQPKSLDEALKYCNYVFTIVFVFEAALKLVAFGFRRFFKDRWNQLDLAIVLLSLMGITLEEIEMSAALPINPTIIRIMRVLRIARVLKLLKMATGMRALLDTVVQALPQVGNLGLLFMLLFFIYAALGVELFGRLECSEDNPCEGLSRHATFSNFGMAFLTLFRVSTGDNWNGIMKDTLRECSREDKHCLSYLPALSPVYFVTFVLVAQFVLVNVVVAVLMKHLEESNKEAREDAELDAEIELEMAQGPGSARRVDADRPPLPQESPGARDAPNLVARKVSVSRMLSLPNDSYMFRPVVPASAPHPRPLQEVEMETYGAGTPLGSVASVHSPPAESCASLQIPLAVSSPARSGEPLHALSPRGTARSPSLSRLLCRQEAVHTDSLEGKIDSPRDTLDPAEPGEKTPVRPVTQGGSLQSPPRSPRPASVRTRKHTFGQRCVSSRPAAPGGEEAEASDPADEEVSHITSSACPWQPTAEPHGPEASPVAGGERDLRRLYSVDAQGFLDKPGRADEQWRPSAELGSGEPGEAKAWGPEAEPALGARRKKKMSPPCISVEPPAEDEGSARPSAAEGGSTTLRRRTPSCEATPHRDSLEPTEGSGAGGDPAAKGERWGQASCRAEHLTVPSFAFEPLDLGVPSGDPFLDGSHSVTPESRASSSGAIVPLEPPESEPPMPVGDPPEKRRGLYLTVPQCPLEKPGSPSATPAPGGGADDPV
T9 sequence (Q9UBE0 whole entry): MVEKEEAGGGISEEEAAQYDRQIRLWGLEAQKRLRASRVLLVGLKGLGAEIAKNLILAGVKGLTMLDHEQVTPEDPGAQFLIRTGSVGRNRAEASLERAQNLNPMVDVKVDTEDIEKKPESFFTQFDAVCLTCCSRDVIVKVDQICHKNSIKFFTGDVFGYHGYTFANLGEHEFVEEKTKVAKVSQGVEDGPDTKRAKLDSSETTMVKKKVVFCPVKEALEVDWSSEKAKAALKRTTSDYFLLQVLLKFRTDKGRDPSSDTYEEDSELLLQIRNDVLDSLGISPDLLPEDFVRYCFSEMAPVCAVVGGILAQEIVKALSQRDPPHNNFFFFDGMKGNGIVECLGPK
T9 sequence (Q9UBT2 whole entry): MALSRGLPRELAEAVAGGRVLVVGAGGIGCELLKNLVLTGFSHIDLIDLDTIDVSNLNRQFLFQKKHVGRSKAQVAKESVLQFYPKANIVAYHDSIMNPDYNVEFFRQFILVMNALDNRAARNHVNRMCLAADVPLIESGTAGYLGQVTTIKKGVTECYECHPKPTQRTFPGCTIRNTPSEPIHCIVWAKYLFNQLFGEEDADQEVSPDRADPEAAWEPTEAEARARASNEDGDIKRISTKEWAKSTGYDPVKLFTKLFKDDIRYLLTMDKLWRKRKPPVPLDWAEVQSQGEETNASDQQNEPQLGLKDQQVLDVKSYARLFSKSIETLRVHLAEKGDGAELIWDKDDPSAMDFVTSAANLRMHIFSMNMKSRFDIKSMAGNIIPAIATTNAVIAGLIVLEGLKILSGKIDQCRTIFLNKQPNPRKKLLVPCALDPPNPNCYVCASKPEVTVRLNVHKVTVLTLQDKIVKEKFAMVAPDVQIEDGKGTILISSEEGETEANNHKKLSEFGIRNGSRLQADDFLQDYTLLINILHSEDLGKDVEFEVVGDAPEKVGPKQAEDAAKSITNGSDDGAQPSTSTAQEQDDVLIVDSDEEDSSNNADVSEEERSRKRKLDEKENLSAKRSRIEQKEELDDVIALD
T5 sequence (P09923 whole entry, the tested form may be a part): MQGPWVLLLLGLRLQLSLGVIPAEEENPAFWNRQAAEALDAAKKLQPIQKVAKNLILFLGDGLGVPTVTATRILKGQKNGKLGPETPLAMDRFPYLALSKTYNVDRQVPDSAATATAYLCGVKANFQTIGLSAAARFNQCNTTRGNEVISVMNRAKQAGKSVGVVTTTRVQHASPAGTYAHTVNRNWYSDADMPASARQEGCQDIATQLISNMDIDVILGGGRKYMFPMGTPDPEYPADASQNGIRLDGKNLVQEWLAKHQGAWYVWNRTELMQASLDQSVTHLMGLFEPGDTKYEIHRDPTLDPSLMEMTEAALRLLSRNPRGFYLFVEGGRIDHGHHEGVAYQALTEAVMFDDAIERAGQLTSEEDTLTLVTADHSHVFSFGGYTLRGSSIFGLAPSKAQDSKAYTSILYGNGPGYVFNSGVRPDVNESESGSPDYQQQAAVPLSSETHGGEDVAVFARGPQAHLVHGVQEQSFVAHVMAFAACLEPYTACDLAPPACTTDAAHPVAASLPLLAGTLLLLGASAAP
Chain of Induced myeloid leukemia cell differentiation protein Mcl-1 (Q07820 whole entry): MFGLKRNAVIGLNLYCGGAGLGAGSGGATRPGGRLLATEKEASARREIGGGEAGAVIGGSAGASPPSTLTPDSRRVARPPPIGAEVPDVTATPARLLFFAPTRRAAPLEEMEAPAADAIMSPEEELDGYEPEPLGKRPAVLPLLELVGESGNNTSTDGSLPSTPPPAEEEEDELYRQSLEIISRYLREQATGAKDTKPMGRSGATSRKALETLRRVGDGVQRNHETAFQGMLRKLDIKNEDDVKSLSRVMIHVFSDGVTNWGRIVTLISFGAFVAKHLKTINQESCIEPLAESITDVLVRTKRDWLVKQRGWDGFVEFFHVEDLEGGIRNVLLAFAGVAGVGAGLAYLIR
Chain of Tyrosine-protein phosphatase non-receptor type 11 (Q06124 whole entry): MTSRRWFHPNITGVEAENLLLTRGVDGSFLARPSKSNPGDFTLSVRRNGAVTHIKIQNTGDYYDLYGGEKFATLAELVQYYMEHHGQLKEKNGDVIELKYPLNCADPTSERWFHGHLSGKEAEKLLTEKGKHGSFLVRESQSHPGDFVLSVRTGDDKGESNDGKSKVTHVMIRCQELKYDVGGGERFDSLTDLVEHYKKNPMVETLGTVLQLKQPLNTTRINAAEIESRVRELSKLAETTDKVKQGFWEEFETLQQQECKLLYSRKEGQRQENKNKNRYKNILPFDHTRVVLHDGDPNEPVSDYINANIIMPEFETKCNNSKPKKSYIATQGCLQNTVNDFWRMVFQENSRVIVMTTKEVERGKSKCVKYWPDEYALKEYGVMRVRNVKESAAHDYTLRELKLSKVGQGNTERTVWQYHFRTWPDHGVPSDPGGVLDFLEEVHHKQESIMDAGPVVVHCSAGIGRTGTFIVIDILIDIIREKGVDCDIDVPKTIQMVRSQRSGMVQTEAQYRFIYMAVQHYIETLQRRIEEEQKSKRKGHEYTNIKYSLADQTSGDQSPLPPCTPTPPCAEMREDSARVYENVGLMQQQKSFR

O=C1C2=C(Nc3ccccc3SC2c2cccc(Cl)c2)c2ccccc21 (centres undefined)
active: IC50 [1] > 150 µM

S=C(NCCc1ccccc1)Nc1c(Cl)cccc1Cl
active: IC50 [2] 0.347 µM | IC50 [3] 0.447 µM | IC50 [4] 5.76 µM | EC50 [5] 0.565 µM | IC50 [8] 14.5 µM | IC50 [10] 0.0345 µM | IC50 [11] 4.31 µM | IC50 [12] 2.44 µM | IC50 [13] 1.12 µM | IC50 [15] 4.11 µM | IC50 [16] 0.342 µM
inactive: IC50 [6] > 99 µM | IC50 [7] > 100 µM | IC50 (cells [14]) > 29.9 µM | EC50 (cells [17]) > 29.9 µM | IC50 [18] > 99 µM
> 158 µM (not active): IC50 [9]

CN(C)c1ccc(N=Nc2ccccc2Br)cc1
inactive: EC50 [21] > 67.5 µM | EC50 (cells [23]) > 67.5 µM | IC50 [24] 28.1 µM
active: IC50 [19] 36 µM | IC50 [20] 30.9 µM | IC50 [22] 38.2 µM | IC50 (Nonstructural protein 1) 17.2 µM

COc1cc(OC)c2c(O)c3c(c(-c4c5c(c(O)c6c(OC)cc(OC)cc46)CO[C@@H](C)[C@H]5O)c2c1)[C@H](O)[C@H](C)OC3
> 300 µM (not active): EC50 [28] | EC50 [31]
active: IC50 [25] 20.3 µM | IC50 (SUMO-activating enzyme [26]) 6.03 µM | IC50 [27] 4.27 µM | IC50 (SUMO-activating enzyme [30]) 17.1 µM
2.51 µM (not active): IC50 [29]

CC(C)(C)CCN1CC2CCC(NC(=O)c3cc(Cl)cc(Cl)c3)C2C1 (centres undefined)
active: EC50 [32] 0.08 µM | EC50 [33] 0.66 µM
